Legend:
[1] = system: GDF8; test: AlphaScreen SureFire SMAD3 (p-Ser423/425) assay, GDF8-stimulated (GDF pSMAD (MPC11)); type: cell-based; conditions: p-SMAD-3 (Ser423/425)
Source text: (§1) Example 2: AlphaScreen® SureFire® SMAD3 (p-Ser423/425) Assay
(§2) The p-SMAD-3 (Ser423/425) SureFire® assay has been designed to measure the phosphorylation of endogenous cellular p-SMAD-3 (Ser423/425) in cell lysates and is a system for the screening of both modulators of receptor activation (e.g. agonists and antagonists) as well as agents acting intracellularly, such as small molecule inhibitors of upstream events. The assay will measure p-SMAD-3 (Ser423/425) activation by either cloned or endogenous receptors, and can be applied to primary cells.
(§3) P-SMAD-3 (Ser423/425) SureFire® Assay Protocols
(§4) 96-well Assay Protocol for 293FT and RMS13 adherent cells can be carried out manually or in high throughput with liquid handling robots.
(§5) The cells (80 μL of cells for 96 well plates) were plated in collagen coated tissue culture plates in RPMI or FreeStyle medium (Invitrogen) and incubated overnight. For manual analysis, 6 plates for GDF8, 6 plates for TGFβ, and optionally 6 plates for Alk5ca(ALK5 constitutively active) were used.
(§6) The compound dilution plates were prepared as follows: 12 μL of DMSO was transferred into first column of 96-well plate, and 16 μL of DMSO was transferred into columns 2-12 of the 96-well plate. 12 μL of compound solution was transferred into first column of the DMSO-containing 96-well plate. Three-fold dilution was performed up to column 10 of the DMSO-containing 96-well plate.
(§7) The plate containing cells were treated with compounds for about 10 minutes, and then ligand was added. GDF8 or TGFb was added to plates to stimulate. 293FL cells were stimulated for 90 minutes at 37° C.; and RMS13 cells were stimulated for 60 minutes at 37° C. The medium was then removed from the cells, and 1× Lysis Buffer (about 25 μL) was added and the plate was gently agitated on plate shaker for 5-10 minutes.
(§8) The lysate (5 μL) was then placed into 384-well shallow plates avoiding the generation of bubbles. To this, the Reaction Buffer+Activation Buffer+AlphaScreen® Acceptor beads mixture (5 μL) was added. The plate was sealed with adhesive cover and shielded from light (e.g., with metal foil), and agitated gently on plate shaker for 2 hours at room temperature.
(§9) Dilution buffer+AlphaScreen® Donor beads (2 μL) was then added, and the plate was intubated on the plate shaker for an additional 1½ hours. After completion, the plate was read on Synergy-4 or Enspire plate reader, using AlphaScreen® pSMAD3® settings.
(§10) Representative results for inhibition of GDF8 (data=GDF pSMAD (MPC11) (μM)) and TGF-β (data=TGF-β pSMAD (MPC-11) (μM)) signaling are shown in Table 1: […]

[2] = system: TGF-β; test: AlphaScreen SureFire SMAD3 (p-Ser423/425) assay, TGF-β-stimulated (TGF-β pSMAD (MPC-11)); type: cell-based; conditions: p-SMAD-3 (Ser423/425)
Source text: as §1, §2, §3, §4, §5, §6, §7, §8, §9, §10

[3] = Mus musculus, MPC-11, inhibition of GDF8 signaling
[4] = Mus musculus, MPC-11, inhibition of TGF-β signaling

SMILES	IC50 [1, 3]	IC50 [2, 4]	IC50 ([1]; inhibition of GDF8 signaling)	IC50 ([2]; inhibition of TGF-β signaling)
Cc1ccccc1-c1ncc(F)c(Nc2ccc3[nH]ncc3c2)n1 [Compound 34, N-(5-Fluoro-2-(methylphenyl)pyrimidin-4-yl)-1H-indazol-5-amine]	427 nM	2340 nM		
Fc1ccc(-c2ncc(F)c(Nc3ccc4[nH]ncc4c3)n2)cc1F [Compound 35, N-(2-(3,4-Difluorophenyl)-5-fluoropyrimidin-4-yl)-1H-indazol-5-amine]	258 nM	2000 nM		
Fc1cccc(-c2ncc(F)c(Nc3ccc4[nH]ncc4c3)n2)c1 [Compound 36, N-(5-Fluoro-2-(3-fluorophenyl)pyrimidin-4-yl)-1H-indazol-5-amine]	555 nM	3060 nM		
Fc1cnc(-c2ccccc2)nc1Nc1ccc2[nH]ncc2c1 [Compound 37, N-(5-Fluoro-2-phenylpyrimidin-4-yl)-1H-indazol-5-amine]	459 nM	3260 nM		
FC(F)(F)c1cccc(-c2nccc(Nc3ccc4[nH]ncc4c3)n2)c1 [Compound 45, N-(2-(3-Trifluoromethylphenyl)pyrimidin-4-yl)-1H-indazol-5-amine]	652 nM	4370 nM		
Cc1cc(-c2ncc(C)c(Nc3cnc4[nH]ncc4c3)n2)ccc1F [Compound 49, N-(2-(4-Fluoro-3-methylphenyl)-5-methylpyrimidin-4-yl)-1H-pyrazolo[3,4-b]pyridin-5-amine]	545 nM	349 nM		
Fc1ccc(-c2nc(Nc3cnc4[nH]ncc4c3)c3cc[nH]c3n2)cc1 [Compound 50, N-(2-(4-Fluorophenyl)-7H-pyrrolo[2,3-d]pyrimidin-4-yl)-1H-pyrazolo[3,4-b]pyridin-5-amine]	1050 nM	3490 nM		
Cc1cc(-c2ncc(C)c(Nc3cc4cn[nH]c4cc3C)n2)ccc1F [Compound 51, N-(2-(4-Fluoro-3-methylphenyl)-5-methylpyrimidin-4-yl)-6-methyl-1H-indazol-5-amine]			777 nM	829 nM
Cc1cc2[nH]ncc2cc1Nc1nc(-c2ccc(F)cc2)ncc1C [Compound 53, N-(2-(4-Fluorophenyl)-5-methylpyrimidin-4-yl)-6-methyl-1H-indazol-5-amine]	540 nM	543 nM		
Cc1cc2[nH]ncc2cc1Nc1nc(-c2ccc(F)c(F)c2)ncc1C [Compound 54, N-(2-(3,4-Difluorophenyl)-5-methylpyrimidin-4-yl)-6-methyl-1H-indazol-5-amine]	492 nM	662 nM		
Cc1ccc(C)c(-c2ncc(C)c(Nc3cc4cn[nH]c4cc3C)n2)c1 [Compound 55, N-(2-(2,5-Dimethylphenyl)-5-methylpyrimidin-4-yl)-6-methyl-1H-indazol-5-amine]	260 nM	629 nM		
Cc1cc(-c2ncc(C)c(Nc3cc4cn[nH]c4cc3C)n2)ccc1F [Compound 56, N-(2-(4-Fluoro-3-methylphenyl)-5-methylpyrimidin-4-yl)-6-methyl-1H-indazol-5-amine]			184 nM	281 nM
Cc1cnc(-c2cccc(F)c2)nc1Nc1cc2cn[nH]c2cc1F [Compound 57, 6-Fluoro-N-(2-(3-fluorophenyl)-5-methylpyrimidin-4-yl)-1H-indazol-5-amine]	852 nM	1820 nM		
Cc1cccc(-c2ncc(C)c(Nc3cc4cn[nH]c4cc3F)n2)c1 [Compound 58, 6-Fluoro-N-(2-(3-methylphenyl)-5-methylpyrimidin-4-yl)-1H-indazol-5-amine]	394 nM	808 nM		
Cc1ccc(C)c(-c2ncc(C)c(Nc3cc4cn[nH]c4cc3F)n2)c1 [Compound 59, 6-Fluoro-N-(2-(2,5-dimethylphenyl)-5-methylpyrimidin-4-yl)-1H-indazol-5-amine]	332 nM	558 nM		
Cc1cnc(-c2ccc(F)c(F)c2)nc1Nc1cc2cn[nH]c2cc1F [Compound 60, 6-Fluoro-N-(2-(3,4-difluorophenyl)-5-methylpyrimidin-4-yl)-1H-indazol-5-amine]	454 nM	1040 nM		
Cc1cc(-c2ncc(C)c(Nc3cc4cn[nH]c4cc3F)n2)ccc1F [Compound 61, 6-Fluoro-N-(2-(4-fluoro-3-methylphenyl)-5-methylpyrimidin-4-yl)-1H-indazol-5-amine]	241 nM	535 nM		
COc1cc2[nH]ncc2cc1Nc1nc(-c2ccccc2F)ncc1C [Compound 62, N-(2-(2-Fluorophenyl)-5-methylpyrimidin-4-yl)-6-methoxy-1H-indazol-5-amine]	335 nM	381 nM		
COc1cc2[nH]ncc2cc1Nc1nc(-c2ccc(F)c(F)c2)ncc1C [Compound 63, N-(2-(3,4-Difluorophenyl)-5-methylpyrimidin-4-yl)-6-methoxy-1H-indazol-5-amine]	312 nM	395 nM		

More lines, now with the values ahead:

IC50 [1, 3]	IC50 [2, 4]	IC50 ([1]; inhibition of GDF8 signaling)	IC50 ([2]; inhibition of TGF-β signaling)	SMILES
116 nM	553 nM			Cc1cccc(-c2nccc(Nc3ccc4[nH]ncc4c3)n2)c1 [Compound 32, N-(2-(3-Methylphenyl)pyrimidin-4-yl)-1H-indazol-5-amine]
25.1 nM	203 nM			Fc1ccc(-c2nccc(Nc3ccc4[nH]ncc4c3)n2)cc1 [Compound 33, N-(2-(4-Fluorophenyl)pyrimidin-4-yl)-1H-indazol-5-amine]
125 nM	339 nM			Cc1cnc(-c2ccccc2F)nc1Nc1ccc2[nH]ncc2c1 [Compound 38, N-(2-(2-Fluorophenyl)-5-methylpyrimidin-4-yl)-1H-indazol-5-amine]
204 nM	436 nM			Cc1ccccc1-c1ncc(C)c(Nc2ccc3[nH]ncc3c2)n1 [Compound 39, N-(2-(2-Methylphenyl)-5-methylpyrimidin-4-yl)-1H-indazol-5-amine]
58.6 nM	174 nM			Cc1cnc(-c2ccc(F)c(F)c2)nc1Nc1ccc2[nH]ncc2c1 [Compound 40, N-(2-(3,4-Difluorophenyl)-5-methylpyrimidin-4-yl)-1H-indazol-5-amine]
105 nM	168 nM			Cc1ccc(C)c(-c2ncc(C)c(Nc3ccc4[nH]ncc4c3)n2)c1 [Compound 41, N-(2-(2,5-Dimethylphenyl)-5-methylpyrimidin-4-yl)-1H-indazol-5-amine]
7.6 nM	53.3 nM			Cc1cc(F)ccc1-c1nccc(Nc2ccc3[nH]ncc3c2)n1 [Compound 42, N-(2-(4-Fluoro-2-methylphenyl)pyrimidin-4-yl)-1H-indazol-5-amine]
41 nM	185 nM			Cc1cc(-c2nccc(Nc3ccc4[nH]ncc4c3)n2)ccc1F [Compound 43, N-(2-(4-Fluoro-3-methylphenyl)pyrimidin-4-yl)-1H-indazol-5-amine]
209 nM	1840 nM			Nc1ccccc1-c1nccc(Nc2ccc3[nH]ncc3c2)n1 [Compound 44, N-(2-(2-Aminophenyl)pyrimidin-4-yl)-1H-indazol-5-amine]
11 nM	65.9 nM			COc1ccc(-c2nccc(Nc3ccc4[nH]ncc4c3)n2)c(C)c1 [Compound 46, N-(2-(4-Methoxy-2-methylphenyl)pyrimidin-4-yl)-1H-indazol-5-amine]
34.4 nM	44.4 nM			COc1cc2nccc(Nc3ccnc(-c4ccc(F)cc4C)n3)c2cc1OC [Compound 47, N-(2-(4-Fluoro-2-methylphenyl)pyrimidin-4-yl)-6,7-dimethoxyquinolin-4-amine]
192 nM	595 nM			Cc1ccc(F)c(-c2nccc(Nc3ccc4[nH]ncc4c3)n2)c1 [Compound 48, N-(2-(2-Fluoro-5-methylphenyl)pyrimidin-4-yl)-1H-indazol-5-amine]
234 nM	322 nM			Cc1cccc(-c2ncc(C)c(Nc3cc4cn[nH]c4cc3C)n2)c1 [Compound 52, N-(2-(3-Methylphenyl)-5-methylpyrimidin-4-yl)-6-methyl-1H-indazol-5-amine]
